Results published in paper PMC7327383, “The affinity and selectivity of α‐adrenoceptor antagonists, antidepressants, and antipsychotics for the human α1A, α1B, and α1D‐adrenoceptors” (Pharmacology Research & Perspectives, 2020).

Tests used:
human α1B-adrenoceptor = biological target: T1, human α1B-adrenoceptor (Homo sapiens, UniProt P35368); experiment: [3H]prazosin whole-cell competition binding, CHO-α1B cells; details: for Selectivity ratio α1B vs α1D: ratio of KD values, higher α1B affinity, 1.0 under vs = none; for Kd: read-out: Log KD α1B (converted)
T1 construct: CHO cells stably expressing either the full‐length human α1A, α1B, or α1D‐adrenoceptor
T1 sequence (P35368 1-520): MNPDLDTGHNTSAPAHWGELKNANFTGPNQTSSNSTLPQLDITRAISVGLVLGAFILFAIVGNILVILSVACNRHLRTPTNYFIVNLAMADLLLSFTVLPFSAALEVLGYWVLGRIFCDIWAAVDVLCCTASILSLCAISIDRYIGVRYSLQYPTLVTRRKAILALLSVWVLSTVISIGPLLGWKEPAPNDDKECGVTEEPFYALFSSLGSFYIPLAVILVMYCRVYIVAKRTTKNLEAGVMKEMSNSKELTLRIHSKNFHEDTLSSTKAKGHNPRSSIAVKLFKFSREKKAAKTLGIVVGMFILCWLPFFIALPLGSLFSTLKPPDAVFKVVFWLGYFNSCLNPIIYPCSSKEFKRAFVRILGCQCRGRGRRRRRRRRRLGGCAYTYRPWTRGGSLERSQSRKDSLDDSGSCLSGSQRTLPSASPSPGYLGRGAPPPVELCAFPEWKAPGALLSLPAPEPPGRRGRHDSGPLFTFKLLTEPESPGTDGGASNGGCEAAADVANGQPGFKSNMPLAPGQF

[1] = biological target: T2, full-length human α1D-adrenoceptor (Homo sapiens, UniProt P25100); experiment: [3H]prazosin whole-cell competition binding, CHO-α1D cells; details: for Selectivity ratio α1B vs α1D: ratio of KD values, higher α1D affinity (site 1 KD)
T2 sequence (P25100 1-572): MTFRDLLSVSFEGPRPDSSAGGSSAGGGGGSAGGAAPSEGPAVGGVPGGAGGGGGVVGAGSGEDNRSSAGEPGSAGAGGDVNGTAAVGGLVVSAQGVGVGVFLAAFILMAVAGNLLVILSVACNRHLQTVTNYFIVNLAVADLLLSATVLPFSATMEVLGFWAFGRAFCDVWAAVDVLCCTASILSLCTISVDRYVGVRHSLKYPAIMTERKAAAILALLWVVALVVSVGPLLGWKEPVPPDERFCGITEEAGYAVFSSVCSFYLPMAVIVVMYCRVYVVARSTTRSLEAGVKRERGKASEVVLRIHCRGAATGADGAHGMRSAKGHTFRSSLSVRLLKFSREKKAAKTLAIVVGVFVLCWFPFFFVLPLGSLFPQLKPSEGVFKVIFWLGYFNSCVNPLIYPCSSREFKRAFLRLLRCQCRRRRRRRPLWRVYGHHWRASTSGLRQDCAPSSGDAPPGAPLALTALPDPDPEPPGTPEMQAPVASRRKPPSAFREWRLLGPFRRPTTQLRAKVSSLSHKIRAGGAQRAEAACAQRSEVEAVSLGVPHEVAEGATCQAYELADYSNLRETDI

human α1A-adrenoceptor = biological target: T3, human α1A-adrenoceptor (Homo sapiens, UniProt P35348); experiment: [3H]prazosin whole-cell competition binding, CHO-α1A cells; details: for Selectivity ratio α1A vs α1D / Selectivity ratio α1A vs α1B: ratio of KD values, 1.0 under vs = none; for Selectivity ratio α1A vs α1D: higher α1A affinity; for Selectivity ratio α1A vs α1B: printed under α1A = higher α1A affinity; for Kd: read-out: Log KD α1A (converted)
T3 construct: CHO cells stably expressing either the full‐length human α1A, α1B, or α1D‐adrenoceptor
T3 sequence (P35348 1-466): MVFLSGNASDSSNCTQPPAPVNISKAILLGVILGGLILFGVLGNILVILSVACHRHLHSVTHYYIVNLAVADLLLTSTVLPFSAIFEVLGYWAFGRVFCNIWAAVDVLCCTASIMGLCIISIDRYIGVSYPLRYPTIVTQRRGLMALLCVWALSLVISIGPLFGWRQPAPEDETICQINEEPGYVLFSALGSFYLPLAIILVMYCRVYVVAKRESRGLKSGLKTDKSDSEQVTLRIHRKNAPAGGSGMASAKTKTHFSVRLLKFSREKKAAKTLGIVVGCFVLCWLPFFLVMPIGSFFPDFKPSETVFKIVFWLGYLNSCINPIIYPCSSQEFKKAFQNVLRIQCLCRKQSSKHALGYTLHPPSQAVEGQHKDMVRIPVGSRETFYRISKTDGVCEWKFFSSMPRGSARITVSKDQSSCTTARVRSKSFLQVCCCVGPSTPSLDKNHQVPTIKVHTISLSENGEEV

[2] = single-component inhibition curve, given as log KD (negative), mean ± SE mean
[3] = Log KD α1D, single-component inhibition curve, given as log KD (negative), mean ± SE mean

COC1(C2=NCCN2)COc2ccccc2O1 (stereo not shown) [RX821002]
Selectivity ratio α1B vs α1D (human α1B-adrenoceptor): 1.4 fold
Log KD α1B (human α1B-adrenoceptor; [2]): −5.46 ± 0.06
Log KD α1D [1, 2]: −5.31 ± 0.13
Selectivity ratio α1A vs α1D (human α1A-adrenoceptor): 16 fold
Selectivity ratio α1A vs α1B (human α1A-adrenoceptor): 11 fold
Log KD α1A (human α1A-adrenoceptor; [2]): −6.51 ± 0.09

CC(C)NCC(O)COc1cccc2[nH]c3ccccc3c12 (stereo not shown) [Carazolol]
selectivity α1B vs α1D (human α1B-adrenoceptor; ratio, 1 = no selectivity for a subtype over another): 2.3
Kd (human α1B-adrenoceptor; [2]): 20.9 µM
Kd ([1]; Log KD α1D (apparent), app: top concentration inhibited most but not all specific binding, curve extrapolated): 9.12 µM
Selectivity ratio α1B vs α1D [1]: 2.3 fold
Selectivity ratio α1A vs α1D (human α1A-adrenoceptor): 34 fold
Selectivity ratio α1A vs α1B (human α1A-adrenoceptor): 78 fold
Kd (human α1A-adrenoceptor; [2]): 269 nM

Cc1ccc(Sc2ccccc2N2CCNCC2)c(C)c1 [Vortioxetine]
Selectivity ratio α1B vs α1D (human α1B-adrenoceptor): 1.0 fold
Kd (human α1B-adrenoceptor; [2]): 3.8 µM
Kd [1, 3]: 3.72 µM
Selectivity ratio α1A vs α1D (human α1A-adrenoceptor): 7.8 fold
Selectivity ratio α1A vs α1B (human α1A-adrenoceptor): 7.9 fold
Kd (human α1A-adrenoceptor; [2]): 479 nM

CC(C)(C)NCC(O)COc1cccc2[nH]c(=O)[nH]c12 (stereo not shown) [CGP12177]
IC50 (human α1B-adrenoceptor; read-out: Log IC50 α1B (converted)): > 100 µM
Kd [1, 3]: 63.1 µM
Selectivity ratio α1B vs α1D [1]: >1.6 fold
Selectivity ratio α1A vs α1D (human α1A-adrenoceptor): 8.7 fold
Selectivity ratio α1A vs α1B (human α1A-adrenoceptor): >14 fold
Kd (human α1A-adrenoceptor; [2]): 7240 nM
